From patent US20120270935A1, “FORMULATIONS” (priority 2009, published 2012) come the findings set out here.

Assay [1] concerns P. acnes. As to the kind of experiment: Agar dilution MIC assay, panel of propionibacterium strains. The class given is cell-based, Propionibacterium acnes. The method, then: This is a standard international method for quantitatively assessing the antimicrobial activity of a compound in a solid medium. The test compound was prepared to 40× the highest concentration required (eg 10 mg/ml for a final concentration of […]) and a series of doubling dilutions were performed in a suitable solvent. A set amount of these antimicrobial stock solutions was then added to molten agar medium (ca 55° C.), mixed thoroughly, poured into sterile Petri dishes and allowed to cool/set. The culture medium was as described above.
A Multipoint™ Inoculator (AQS Manufacturing Ltd, UK) was used to inoculate the plates by spotting the inocula onto the surface of the agar, delivering approximately 1 to 2 μl per spot (yielding 10^5 CFU (colony forming units) per spot).
The plate(s) were then incubated under the conditions described above, following which they were examined visually for signs of bacterial growth. The MIC value was ascertained when there was a marked reduction in, or total loss of, growth on the test plate at the lowest concentration as compared to that of the growth on the control plate.
The assays were conducted in triplicate and included a positive control (culture medium, diluting solvent and inoculum).
The activity (MIC by agar dilution) of copper usnate was determined against a panel of different propionibacterium strains. The culture medium was Wilkins-Chalgren agar, at pH 6.0. DMSO was used as the solvent. All tests were performed in triplicate.
For orientation: In agar dilution, organisms are placed on agar that contains the substance at set levels.

In assay [2] the test system is S. epidermidis NCTC 11047. As to the kind of experiment: MBC assay. The class given is cell-based, Staphylococcus epidermidis. Particulars: Mueller-Hinton broth pH 7.0. The source says: (a) staphylococci. The Staphylococcus aureus strain used was ATCC 29213. S. aureus and other staphylococci are common causes of a wide range of skin, skin structure and wound infections; S. aureus is also known to exacerbate eczema. The ATCC 29213 strain is known to be susceptible to beta-lactam antibiotics such as methicillin. The Staphylococcus epidermidis strain used was NCTC 11047. Staph. epidermidis forms part of the resident flora of skin and is an opportunistic pathogen which can cause biofilms to grow for instance on plastic surgical implants such as catheters. Unless otherwise stated, the staphylococci were cultured and maintained on Mueller-Hinton Medium (agar and broth) at pH 7.2; cultures were incubated aerobically at 37° C. for 19-20 hours, at pH 7 (±0.2). (b) C. striatum NCTC 764. Corynebacterium striatum is closely related to organisms (aerobic diphtheroids of the genus Corynebacterium) that cause body odour. It was cultured and maintained on Mueller-Hinton medium (agar and broth). All cultures were incubated aerobically at 37° C. for 72 hours, at pH 7 (±0.2). […]
(§1) Example 8 was repeated (except for the supplemented DDA assays), using S. aureus ATCC 29213 as the test organism. […] In the DDA assays, 200 μg is of each compound was loaded onto each disc: the culture medium was Mueller-Hinton agar at pH 7.0, and results were recorded after overnight incubation at 37° C. in air. […]

Assay [3] relates to S. pyogenes ATCC 12344. As to the kind of experiment: MIC assay. The class given is cell-based, Streptococcus pyogenes. Particulars: Mueller-Hinton broth pH 7.0.
For assay [4], the system named is S. epidermidis NCTC 11047. In words: MIC assay. The class given is cell-based, Staphylococcus epidermidis. Particulars: Mueller-Hinton broth pH 7.0.
Description: (a) staphylococci. The Staphylococcus aureus strain used was ATCC 29213. S. aureus and other staphylococci are common causes of a wide range of skin, skin structure and wound infections; S. aureus is also known to exacerbate eczema. The ATCC 29213 strain is known to be susceptible to beta-lactam antibiotics such as methicillin. The Staphylococcus epidermidis strain used was NCTC 11047. Staph. epidermidis forms part of the resident flora of skin and is an opportunistic pathogen which can cause biofilms to grow for instance on plastic surgical implants such as catheters. […]
This is a standard international method for quantitatively assessing the antimicrobial activity of a compound in a liquid medium. […]
The wells were inoculated with a liquid suspension of freshly grown micro-organism and incubated under the conditions described above. […] The MIC value was recorded as the lowest concentration of test compound required to inhibit microbial growth, ie the lowest concentration for which the liquid in the well remained clear. […]
as §1

Assay [5] relates to C. striatum NCTC 764. As to the kind of experiment: Disc diffusion assay (DDA). Particulars: Corynebacterium striatum, NCTC764; 200 μg per disc; single plates; read-out: DDA zone diameter. The class given is cell-based, Corynebacterium striatum. The source says: (a) staphylococci. The Staphylococcus aureus strain used was ATCC 29213. S. aureus and other staphylococci are common causes of a wide range of skin, skin structure and wound infections; S. aureus is also known to exacerbate eczema. The ATCC 29213 strain is known to be susceptible to beta-lactam antibiotics such as methicillin. The Staphylococcus epidermidis strain used was NCTC 11047. Staph. epidermidis forms part of the resident flora of skin and is an opportunistic pathogen which can cause biofilms to grow for instance on plastic surgical implants such as catheters. Unless otherwise stated, the staphylococci were cultured and maintained on Mueller-Hinton Medium (agar and broth) at pH 7.2; cultures were incubated aerobically at 37° C. for 19-20 hours, at pH 7 (±0.2). (b) C. striatum NCTC 764. Corynebacterium striatum is closely related to organisms (aerobic diphtheroids of the genus Corynebacterium) that cause body odour. It was cultured and maintained on Mueller-Hinton medium (agar and broth). All cultures were incubated aerobically at 37° C. for 72 hours, at pH 7 (±0.2). (c) streptococci. […]
A sterile paper disc was impregnated with a sample of the test compound in a suitable solvent and 30 minutes allowed for the solvents to evaporate (where possible). […] The diameter of this zone of “inhibition” was measured using a ProtoCOL™ automated zone sizer (Synbiosis, Cambridge, UK). […]

The MIC is the smallest concentration in the dilution series that meets the test's criterion for growth inhibition. As a reminder, the MBC is the lowest tested concentration that kills the bacteria rather than only halting them. The low end stands for greater bactericidal potency, the high end for weaker bactericidal potency. Consider `CC(=O)c1c([O-])c(C)c([O-])c2c1OC1=CC(=O)C(C(C)=O)C(=O)C12C.[Cu+2]` (stereo not drawn) [Copper usnate, copper (II) usnate], for which the MIC turned out to be 0.49 µg/mL in assay [1] (P. acnes NCTC 737, mutation None, resistance phenotype None); 0.49 µg/mL in assay [1] (P. acnes PRP-002, mutation 1058/2058, resistance Tet/MLS); 0.49 µg/mL in assay [1] (P. acnes PRP-003, mutation 1058, resistance Tet); 0.49 µg/mL in assay [1] (P. acnes PRP-004, mutation 1058, resistance Tet); 0.49 µg/mL in assay [1] (P. acnes PRP-007, mutation Unknown, resistance Clin); 0.49 µg/mL in assay [1] (P. acnes PRP-010, Erm X, resistance MLSK). The MIC in assay [1] (P. acnes PRP-017, mutation 2058, resistance MLS) was 0.49 µg/mL; in assay [1] (P. acnes PRP-023, Erm X, resistance MLSK), 0.49 µg/mL; in assay [1] (P. acnes PRP-026, mutation 2059, resistance MLS) it was 0.49 µg/mL; in assay [1] (P. acnes PRP-039, mutation 2059, resistance Tet/MLS) it was 0.49 µg/mL; in assay [1] (P. acnes PRP-046, mutation None, resistance None), 0.49 µg/mL; in assay [1] (P. acnes PRP-059, mutation 2058, resistance MLS), 0.49 µg/mL. For the same molecule, the MIC came to 0.49 µg/mL in assay [1] (P. acnes PRP-101, mutation 1058/2059, resistance Tet/MLS); 0.49 µg/mL in assay [1] (P. acnes PRP-102, mutation 1058/2059, resistance Tet/MLS); 0.98 µg/mL in assay [3]; 0.98 µg/mL in assay [4]. In assay [2], this molecule yielded an MBC of 62.5 µg/mL.
Take `CC(=O)c1c(O)c(C)c(O)c2c1OC1=CC(=O)C(C(C)=O)C(=O)C12C` (stereo not drawn) [Usnic acid, 2,6-diacetyl-7,9-dihydroxy-8,9b-dimethyl-1,3(2H,9bh)-dibenzofurandione]: in assay [5], the zone of inhibition at 200 µg/disc amounted to 20 mm.
